Patent US20120202272A1, “LIGE-TYPE SYSTEMS FOR BIOCONVERSION OF LIGNIN-DERIVED COMPOUNDS” (priority 2010, published 2012)

B1: LigF2: N. aromaticivorans beta-etherase polypeptide, glutathione S-transferase-like protein, GenBank ABD27301.1 (protein)
chain: MALKYYHAEPLANSLKSMVPLKEKGLAYESIYVDLHKFEQHQPWFTAINPEGQVPVLDHDGTIITHTTVINEYLEDAFPDAQPADAPLRPRDPVGAARMRYWNKFIDEHVMNYVSMHGWHRMVGVIARNIASGDFEKLLESIPLPDQRKKWATARSGFSEADLANATAKIEYALDKVEKQLGETKWLAGDTYTLADINFYSHCGAMVERMFPEMEVARRAPRLCEWRDRVAARPAVAEALKSEDRTAPGLRVWSGEVR
B2: LigF: S. paucimobilis LigF beta-etherase, positive control polypeptide (protein)
chain: MTLKLYSFGPGANSLKPLATLYEKGLEFEQVFVDPSKFEQHSDWFKKINPRGQVPALWHDGKVVTESTVICEYLEDVFPESGNSLRPADPFKRAEMRVWTKWVDEYFCWCVSTIGWAFGIKAIAQKMSDEEFEEHINKNVPIPEQQLKWRRARNGFPQEMLDEEFRKVGVSVARLEETLSKQDYLVDTGYSLADICNFAIANGLQRPGGFFGDYVNQEKTPGLCAWLDRINARPAIKEMFEKSKREDLLKRQNEKVA
B3: ligE1: N. aromaticivorans beta-etherase polypeptide, glutathione S-transferase-like protein, GenBank ABD26841.1 (protein)
chain: MAANNTITFYDLALSTGATISPFVWATKYALKHKGFDLDVVPGGFTGILERTGGKTERLPAIVDDGEFVLDSWGIVEYLDAKYPDRPVLIPHESVAATLKALDNWFWNAAVGPWMFCFCQDYRDLSLPQDHEYVTHSREKMLGRKLEEVQAGREERLPKISAALEPLRAALAQHQWLGGSSPNYADYRIMGGILFTASVCKTPVLANDDPLRDWIERCLDLYGGLGRHPGLFPLFGLEQREGDPDLFNRAAGQGGIYKRNTGPESTRAETQRITEGMKK
B4: ligE: S. paucimobilis ligE beta-etherase, positive control polypeptide (protein)
chain: MARNNTITLYDLQLESGCTISPYVWRTKYALKHKGFDIDIVPGGFTGILERTGGRSERVPVIVDDGEWVLDSWVIAEYLDEKYPDRPMLFEGPTQKNLMKFLDNWLWSTAVGPWFRCYILDYHDLSLPQDRDYVRWSREQWFLGGQRLEDVQAGREDRLPLVPPTLEPFRRILAETKWLGGDQPNFADYSALAVFLWTASVARTPPLTEDDPLRDWLDRGFDLFDGLGRHPGMNPLFGLKLREGDPEPFVRQTGPAGAGGQALNKGPQTTKMPPRVAEKAD

Tests used:
Escherichia coli = conditions: stated as demonstrated; cited from earlier work
[1] = in vitro biochemical assay for beta-etherase activity on fluorescent substrate MUAV (4MU formation, clarified E. coli cell extracts)
Excerpt: The model substrate synthesis 150 for use in the biochemical screening for selective activity can be outsourced through a contract research organization (CRO). The enzyme discovery effort can initially be focused on identifying potential beta-etherase candidate genes identified through bioinformatic methods. […] The fluorescent substrate α-O-(β-methylumbelliferyl)acetovanillone (MUAV), for example, can be used in in vitro assays to identify beta-etherase function (Acme Biosciences, Mt. View, Calif.). The formation of 4 methylumbelliferone (4MU) upon hydrolysis of the aryl ether bond can be monitored by fluorescence, for example, at λex=365 nm and λem=450 nm (or 460 nm).
The enzyme screening 155 is done to identify novel etherases 160. […] Expression of the beta-etherase genes can be done in 5 ml or 25 ml samples of the recombinant E. coli strains in LB medium using induction with IPTG. Following induction, and cell harvest, cell pellets can be lysed using the BPER (Invitrogen) cell lysis system. […] The formation of 4 methylumbelliferone (4MU) upon hydrolysis of the aryl ether bond in MUAV can be monitored by fluorescence at λex=365 nm and λem=460 nm, and can provide quantitative measurement of beta-etherase function. Cell extracts of E. coli transformed with the S. paucimobilis ligE and ligF genes can be the assay positive controls. Test or unknown samples can include, for example, E. coli strains expressing putative beta-etherase genes from N. aromaticovorans.
This example describes a method for gene expression in E. coli, as well as beta-etherase biochemical assays. Expression of known and putative beta-etherase genes was performed using 5 ml cultures of the recombinant E. coli strains described herein in Luria Broth medium by induction of gene expression using isopropylthiogalactoside (IPTG) to a final concentration of 0.1 mM. Following induction, and cell harvest, the cells were disrupted using either sonication or the BPER (Invitrogen) cell lysis system.
In vitro reactions were performed in a total volume of 200 ul and contained: 25 mM TrisHCl pH 7.5; 0.5 mM dithiothreitol; 1 mM glutathione; 0.05 mM or 0.1 mM MUAV; 10 ul of clarified cell extract used to initiate the reactions. Following incubation for 2.5 hours at room temperature, a 50 ul sample of the reactions was terminated using 150 uL of 300 mM glycine/NaOH buffer pH 9. The formation of 4 methylumbelliferone (4MU) upon hydrolysis of the aryl ether bond was monitored by the increase in fluorescence at λex=360 nm and λem=450 nm using a Spectramax UV/visible/fluorescent spectrophotometer.
The total protein concentrations of the cell lysates were determined using the BCA reagent system for protein quantification (Pierce).
Induction might be also performed using IPTG concentrations in the range of 0.01-1 mM. Cell disruption might be also performed using toluene permeabilization, French pressure techniques, or using multiple freeze/thaw cycles in conjunction with lysozyme. Assay conditions might be varied to include TrisHCl at 10-150 mM concentrations and in the pH range of 6.5-8.5; 0-2 mM dithiothreitol; 0.05-2 mM glutathione; 0.01-5 mM MUAV substrate; 22-42° C. reaction temperatures. The biochemical assay might be performed as a fixed time point assay with reaction times ranging from 5 minutes-12 hours, or performed continuously without quenching with glycine/NaOH buffer to extract enzyme kinetic parameters.

[2] = MUAV substrate, concentration not given
[3] = reactions containing 0.1 mM MUAV substrate, E. coli cell extracts

Molecule	antibacterial activity against Escherichia coli (Escherichia coli)	further results
COc1cc(O)cc(OC)c1C=O [4-hydroxy-2,6-dimethoxybenzaldehyde]	antibacterial activity	–
O=Cc1cccc(O)c1O [2,3-dihydroxybenzaldehyde]	antibacterial activity	–
O=Cc1c(O)cc(O)cc1O [2,4,6-trihydroxybenzaldehyde]	antibacterial activity	–
COc1cccc(C=O)c1O [2-hydroxy-3-methoxybenzaldehyde]	antibacterial activity	–
COc1ccc(O)c(C=O)c1 [2-hydroxy-5-methoxybenzaldehyde]	antibacterial activity	–
O=Cc1ccc(O)c(O)c1O [2,3,4-trihydroxybenzaldehyde]	antibacterial activity	–
O=Cc1cc(O)ccc1O [2,5-dihydroxybenzaldehyde]	antibacterial activity	–
O=Cc1ccc(O)cc1O [2,4-dihydroxybenzaldehyde]	antibacterial activity	–
O=Cc1ccccc1O [2-hydroxybenzaldehyde]	antibacterial activity	–
B1	–	efficiency relative to S. paucimobilis LigF protein ([1]; MUAV substrate): approximately 2 fold; total activity (beta-etherase) [1, 2]: 1206 rfu/ug
B2	–	total activity (beta-etherase) [1, 2]: 558 rfu/ug
B3	–	beta-etherase activity (in words) ([1]; MUAV substrate): beta-etherase activity; efficiency relative to S. paucimobilis ligE beta-etherase enzyme ([1]; MUAV substrate): approximately 75 fold; total activity (beta-etherase) [1, 3]: 529 rfu/ug
B4	–	total activity (beta-etherase) [1, 3]: 7 rfu/ug
